Laboratory results reported in ChEMBL document CHEMBL1142329, “Synthesis and antispasmodic activity of lidocaine derivatives endowed with reduced local anesthetic action” (Bioorg Med Chem Lett, 2008).

Tested on: Rattus norvegicus
Assay: Anesthetic activity in rat at 1.0 uMol/site assessed as duration of full recovery of sensory block
Assay type: functional
Conditions: not given

`CCN(CC)CCC(=O)Nc1c(C)cccc1C` and `CCN(CC)CC(=O)Nc1c(C)cccc1C` [LIDOCAINE] are within 1.5-fold of each other in Time: 107 min for the first, 74 min for the second.

Compared with `CCN(CC)CCC(=O)Nc1ccc(C)cc1C`, `CCN(CC)CCC(=O)Nc1cc(C)ccc1C` is 1.9-fold lower in Time: 89 min for the first, 47 min for the second.

`CCN(CC)CC(=O)Nc1ccc(C)cc1C` and `CCN(CC)CC(=O)Nc1cc(C)ccc1C` are within 1.5-fold of each other in Time: 32 min for the first, 28 min for the second.

Going from `CCN(CC)CC(=O)Nc1cccc(C)c1C` to `CCN(CC)CCC(=O)Nc1cccc(C)c1C`, the Time rises from 16 min to 49 min (3.1-fold).

Compared with `CCN(CC)CCC(=O)Nc1ccc(C)c(C)c1`, `CCN(CC)CC(=O)Nc1ccc(C)c(C)c1` is 2.4-fold lower in Time: 48 min for the first, 20 min for the second.

`CCN(CC)CCC(=O)Nc1cc(C)cc(C)c1` and `CCN(CC)CC(=O)Nc1cc(C)cc(C)c1` are within 1.5-fold of each other in Time: 118 min for the first, 91 min for the second.

Compared with `CCN(CC)CC(=O)Nc1ccccc1C`, `CCN(CC)CC(=O)Nc1ccccc1C(F)(F)F` is 2.2-fold lower in Time: 28 min for the first, 13 min for the second.

`CCN(CC)CC(=O)Nc1cccc(C(F)(F)F)c1` and `CCN(CC)CC(=O)Nc1ccc(C(F)(F)F)cc1` are the same in Time: 19 min for the first, 19 min for the second.

Tested on: Rattus norvegicus
Assay: Anesthetic activity in rat at 0.5 uMol/site assessed as duration of full recovery of sensory block
Assay type: functional
Conditions: not given

Going from `CCN(CC)CCC(=O)Nc1c(C)cccc1C` to `CCN(CC)CC(=O)Nc1c(C)cccc1C` [LIDOCAINE], the Time falls from 72 min to 37 min (1.9-fold).

First: CCN(CC)CCC(=O)Nc1ccc(C)cc1C
Second: CCN(CC)CCC(=O)Nc1cc(C)ccc1C
The Time of the first is 1.6-fold higher: 35 min for the first, 22 min for the second.

`CCN(CC)CC(=O)Nc1ccc(C)cc1C` and `CCN(CC)CC(=O)Nc1cc(C)ccc1C` are within 1.5-fold of each other in Time: 17 min for the first, 19 min for the second.

Compared with `CCN(CC)CC(=O)Nc1cccc(C)c1C`, `CCN(CC)CCC(=O)Nc1cccc(C)c1C` is 3.1-fold higher in Time: 7 min for the first, 22 min for the second.

First: CCN(CC)CCC(=O)Nc1ccc(C)c(C)c1
Second: CCN(CC)CC(=O)Nc1ccc(C)c(C)c1
The Time of the first is 2.4-fold higher: 26 min for the first, 11 min for the second.

Going from `CCN(CC)CCC(=O)Nc1cc(C)cc(C)c1` to `CCN(CC)CC(=O)Nc1cc(C)cc(C)c1`, the Time falls from 88 min to 44 min (2-fold).

Compared with `CCN(CC)CC(=O)Nc1ccccc1C`, `CCN(CC)CC(=O)Nc1ccccc1C(F)(F)F` is 2.1-fold lower in Time: 17 min for the first, 8 min for the second.

`CCN(CC)CC(=O)Nc1cccc(C(F)(F)F)c1` and `CCN(CC)CC(=O)Nc1ccc(C(F)(F)F)cc1` are within 1.5-fold of each other in Time: 17 min for the first, 19 min for the second.

Tested on: Rattus norvegicus
Assay: Anesthetic activity in rat at 4.0 uMol/site assessed as duration of full recovery of sensory block
Assay type: functional
Conditions: not given

Compared with `CCN(CC)CCC(=O)Nc1c(C)cccc1C`, `CCN(CC)CC(=O)Nc1c(C)cccc1C` [LIDOCAINE] is 1.9-fold lower in Time: 311 min for the first, 164 min for the second.

First: CCN(CC)CCC(=O)Nc1ccc(C)cc1C
Second: CCN(CC)CCC(=O)Nc1cc(C)ccc1C
The Time of the first is 2.4-fold higher: 239 min for the first, 101 min for the second.

First: CCN(CC)CC(=O)Nc1ccc(C)cc1C
Second: CCN(CC)CC(=O)Nc1cc(C)ccc1C
The Time of the first is 1.7-fold higher: 92 min for the first, 54 min for the second.

Going from `CCN(CC)CC(=O)Nc1cccc(C)c1C` to `CCN(CC)CCC(=O)Nc1cccc(C)c1C`, the Time rises from 34 min to 139 min (4.1-fold).

First: CCN(CC)CCC(=O)Nc1ccc(C)c(C)c1
Second: CCN(CC)CC(=O)Nc1ccc(C)c(C)c1
The Time of the first is 1.9-fold higher: 107 min for the first, 55 min for the second.

First: CCN(CC)CCC(=O)Nc1cc(C)cc(C)c1
Second: CCN(CC)CC(=O)Nc1cc(C)cc(C)c1
The Time of the first is 2.1-fold higher: 377 min for the first, 181 min for the second.

Going from `CCN(CC)CC(=O)Nc1ccccc1C` to `CCN(CC)CC(=O)Nc1ccccc1C(F)(F)F`, the Time falls from 63 min to 24 min (2.6-fold).

`CCN(CC)CC(=O)Nc1cccc(C(F)(F)F)c1` and `CCN(CC)CC(=O)Nc1ccc(C(F)(F)F)cc1` are within 1.5-fold of each other in Time: 18 min for the first, 21 min for the second.

Tested on: Rattus norvegicus
Assay: Anesthetic activity in rat at 2.0 uMol/site assessed as duration of full recovery of sensory block
Assay type: functional
Conditions: not given

Compared with `CCN(CC)CCC(=O)Nc1c(C)cccc1C`, `CCN(CC)CC(=O)Nc1c(C)cccc1C` [LIDOCAINE] is 1.9-fold lower in Time: 194 min for the first, 103 min for the second.

Compared with `CCN(CC)CCC(=O)Nc1ccc(C)cc1C`, `CCN(CC)CCC(=O)Nc1cc(C)ccc1C` is 2.3-fold lower in Time: 166 min for the first, 72 min for the second.

First: CCN(CC)CC(=O)Nc1ccc(C)cc1C
Second: CCN(CC)CC(=O)Nc1cc(C)ccc1C
The Time of the first is 1.6-fold higher: 63 min for the first, 40 min for the second.

First: CCN(CC)CC(=O)Nc1cccc(C)c1C
Second: CCN(CC)CCC(=O)Nc1cccc(C)c1C
The Time of the first is 3.6-fold lower: 25 min for the first, 91 min for the second.

Going from `CCN(CC)CCC(=O)Nc1ccc(C)c(C)c1` to `CCN(CC)CC(=O)Nc1ccc(C)c(C)c1`, the Time falls from 80 min to 32 min (2.5-fold).

Going from `CCN(CC)CCC(=O)Nc1cc(C)cc(C)c1` to `CCN(CC)CC(=O)Nc1cc(C)cc(C)c1`, the Time falls from 240 min to 134 min (1.8-fold).

First: CCN(CC)CC(=O)Nc1ccccc1C
Second: CCN(CC)CC(=O)Nc1ccccc1C(F)(F)F
The Time of the first is 3.2-fold higher: 48 min for the first, 15 min for the second.

`CCN(CC)CC(=O)Nc1cccc(C(F)(F)F)c1` and `CCN(CC)CC(=O)Nc1ccc(C(F)(F)F)cc1` are within 1.5-fold of each other in Time: 18 min for the first, 19 min for the second.

Tested on: Ileum
Assay: Antispasmodic activity in guinea pig ileum assessed as inhibition of histamine-induced contraction
Assay type: functional, tissue-based
Conditions: Cavia porcellus

Compared with `CCN(CC)CC(=O)Nc1ccc(C)cc1C`, `CCN(CC)CC(=O)Nc1cc(C)ccc1C` is 2.2-fold lower in IC50: 310 µM for the first, 140 µM for the second.

Going from `CCN(CC)CC(=O)Nc1cccc(C)c1C` to `CCN(CC)CC(=O)Nc1c(C)cccc1C` [LIDOCAINE], the IC50 rises from 380 µM to 1410 µM (3.7-fold). The first is the more potent here.

First: CCN(CC)CC(=O)Nc1ccccc1C
Second: CCN(CC)CC(=O)Nc1ccccc1C(F)(F)F
The IC50 of the first is 1.6-fold higher: 160 µM for the first, 100 µM for the second.

Tested on: Ileum
Assay: Antispasmodic activity in guinea pig ileum assessed as inhibition of allergen-induced contraction
Assay type: functional, tissue-based
Conditions: Cavia porcellus

Compared with `CCN(CC)CC(=O)Nc1ccc(C)cc1C`, `CCN(CC)CC(=O)Nc1cc(C)ccc1C` is 1.6-fold lower in IC50: 190 µM for the first, 120 µM for the second. The second is the more potent here.

First: CCN(CC)CC(=O)Nc1cccc(C)c1C
Second: CCN(CC)CC(=O)Nc1c(C)cccc1C [LIDOCAINE]
The IC50 of the first is 4.3-fold lower: 330 µM for the first, 1430 µM for the second.

First: CCN(CC)CC(=O)Nc1ccccc1C
Second: CCN(CC)CC(=O)Nc1ccccc1C(F)(F)F
The IC50 of the first is 3.2-fold higher: 160 µM for the first, 50 µM for the second.

Tested on: not listed separately
Assay: Activity at sodium channel assessed as blockade of sodium current
Conditions: not given

First: CCN(CC)CC(=O)Nc1ccccc1C(F)(F)F
Second: CCN(CC)CC(=O)Nc1c(C)cccc1C [LIDOCAINE]
The IC50 of the first is 140-fold higher: 25400 µM for the first, 180 µM for the second.
